Laboratory results as given in US20250250303A1 (THE TRUSTEES OF COLUMBIA UNIVERSITY IN THE CITY OF NEW YORK, priority 2022, published 2025).
One block for each molecule: values may come before it. Bridge positions count the residues as written; N and C are the ends. Ends that are not written are not given here.

Columns and labels:
C2C12 cells = experiment: MTT assay in C2C12 cells; type: cell-based
Procedure: To examine the function of […] on cell viability and growth, an MTT assay was performed in C2C12 cells.

Insulin tolerance test = type: in vivo, mice; conditions: intraperitoneal; for blood glucose levels in ITT: FIGS. 10A, 8F, 8G; for blood glucose in insulin tolerance assays: FIGS. 12B, 12C
Procedure: Insulin tolerance tests were performed as described previously with some modification. Briefly, 2-3 months old male mice were fasted for 2 hr. and their blood glucose levels (T=0) were measured with tail bleeding using a glucometer (AlphaTRAK). After then, mice were injected intraperitoneally with Humulin (6 nmol/kg body weight), S597 (9 nmol/kg), S597-S20D (9 nmol/kg), S597-W6A (9 nmol/kg), S597-F27A (9 nmol/kg), or S597-N20 (27 nmol/kg), and their blood glucose levels were measured at the indicated time points after injection.

[1] = Chronic treatment by osmotic minipump; type: in vivo, mice
From the text: 2-month-old male mice were implanted with osmotic minipump releasing Humulin (0.2 U/day), S597 (0.3 U/day), or S597-S20D (0.3 U/day). […] Hepes, N=7; Humulin, N=8; S597, N=7; S597-S20D, N=4. […] Hepes, N=7; Humulin, N=8; S597, N=9; S597-S20D, N=4. Two-way ANOVA followed by Tukey's multiple comparisons test. […] Mean±SEM. Hepes, N=8; Humulin, N=7; S597, N=9; S597-S20D, N=5. […] Hepes, N=4; Humulin and S597 analogs, N=5. two-tailed Student's t-test. All graphs show Mean±SEM.
To examine the long-term effects of S597 in vivo, C57BL/6J WT mice were implanted with osmotic minipumps releasing either HEPES, Humulin, or mimetics. […] Consistent with previous work, chronic treatment of Humulin increased body weight (FIGS. 11E, 11F).

IR wild-type (WT) = biological target: T1, IR wild-type (WT) (Homo sapiens, UniProt P06213); experiment: IR activation (auto-phosphorylation) assay in 293 FT cells expressing IR WT; type: cell-based; conditions: 293 FT cells expressing IR WT; 10 nM for 10 min
T1 construct: expressed in transfected cells; host or cells: 293 FT cells
T1 sequence (P06213 28-1370 isoform P06213-2 limits assumed): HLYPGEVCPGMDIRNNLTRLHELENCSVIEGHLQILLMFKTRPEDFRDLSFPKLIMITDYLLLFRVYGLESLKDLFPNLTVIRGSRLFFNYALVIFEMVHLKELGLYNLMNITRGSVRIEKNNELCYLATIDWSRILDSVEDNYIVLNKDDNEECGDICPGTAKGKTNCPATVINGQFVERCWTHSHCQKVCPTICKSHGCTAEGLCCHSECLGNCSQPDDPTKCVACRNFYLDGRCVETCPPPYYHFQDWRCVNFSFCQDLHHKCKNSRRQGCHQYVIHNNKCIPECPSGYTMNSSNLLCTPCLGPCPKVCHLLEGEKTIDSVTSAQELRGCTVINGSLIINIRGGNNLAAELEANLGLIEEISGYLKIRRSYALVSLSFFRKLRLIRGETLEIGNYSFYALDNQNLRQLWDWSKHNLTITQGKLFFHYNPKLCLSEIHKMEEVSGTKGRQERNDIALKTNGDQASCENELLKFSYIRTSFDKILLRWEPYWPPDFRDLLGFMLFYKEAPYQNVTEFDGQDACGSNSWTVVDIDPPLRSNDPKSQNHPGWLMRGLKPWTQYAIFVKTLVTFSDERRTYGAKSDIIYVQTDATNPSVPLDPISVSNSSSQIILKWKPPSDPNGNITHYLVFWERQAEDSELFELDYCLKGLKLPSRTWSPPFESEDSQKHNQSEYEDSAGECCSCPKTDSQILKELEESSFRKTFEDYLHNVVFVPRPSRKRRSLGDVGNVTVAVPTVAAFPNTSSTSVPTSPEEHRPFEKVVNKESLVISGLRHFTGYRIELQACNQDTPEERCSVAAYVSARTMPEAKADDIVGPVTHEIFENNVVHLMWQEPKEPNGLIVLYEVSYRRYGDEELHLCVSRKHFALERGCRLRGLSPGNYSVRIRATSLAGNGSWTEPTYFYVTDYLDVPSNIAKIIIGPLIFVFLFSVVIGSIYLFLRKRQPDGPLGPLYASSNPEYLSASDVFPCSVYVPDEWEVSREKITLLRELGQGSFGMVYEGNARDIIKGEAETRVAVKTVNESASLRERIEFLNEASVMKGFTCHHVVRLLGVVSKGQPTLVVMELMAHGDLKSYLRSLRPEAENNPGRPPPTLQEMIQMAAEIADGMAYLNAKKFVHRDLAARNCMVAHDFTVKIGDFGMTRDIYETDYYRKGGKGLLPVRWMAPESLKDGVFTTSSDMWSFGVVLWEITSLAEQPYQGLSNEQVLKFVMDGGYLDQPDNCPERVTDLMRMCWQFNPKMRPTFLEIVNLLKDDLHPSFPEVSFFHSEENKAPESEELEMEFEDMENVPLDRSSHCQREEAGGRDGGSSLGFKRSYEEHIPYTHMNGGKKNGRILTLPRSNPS
T1 sequence (P06213 763-1382 partner limits assumed): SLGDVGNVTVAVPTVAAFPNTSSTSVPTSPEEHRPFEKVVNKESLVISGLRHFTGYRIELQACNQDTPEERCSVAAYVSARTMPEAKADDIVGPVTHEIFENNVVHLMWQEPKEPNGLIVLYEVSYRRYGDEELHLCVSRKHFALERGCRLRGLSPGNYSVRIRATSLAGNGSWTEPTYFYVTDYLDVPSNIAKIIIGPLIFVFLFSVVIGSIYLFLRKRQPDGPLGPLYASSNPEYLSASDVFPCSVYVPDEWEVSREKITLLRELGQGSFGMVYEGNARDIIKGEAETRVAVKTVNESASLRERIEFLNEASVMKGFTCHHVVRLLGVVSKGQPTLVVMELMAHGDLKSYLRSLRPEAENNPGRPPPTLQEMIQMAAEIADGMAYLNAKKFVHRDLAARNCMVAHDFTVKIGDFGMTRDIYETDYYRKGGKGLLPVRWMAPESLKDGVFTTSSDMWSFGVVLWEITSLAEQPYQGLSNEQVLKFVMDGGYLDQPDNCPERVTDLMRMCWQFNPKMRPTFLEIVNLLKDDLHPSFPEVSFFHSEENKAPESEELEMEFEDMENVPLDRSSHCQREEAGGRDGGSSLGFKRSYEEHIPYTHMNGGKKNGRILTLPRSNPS
Procedure: The insulin receptor signaling assay was performed as described earlier with some modifications. For the activation assay, the short isoform of human IR in pCS2-MYC was used as described previously. Plasmid transfections into 293 FT cells were performed with Lipofectamin™ 2000 (Invitrogen).
(§1) The cells were incubated with the lysis buffer B [50 mM Hepes pH 7.4, 150 mM NaCl, 10% Glycerol, 1% Triton X-100, 1 mM EDTA, 100 mM sodium fluoride, 2 mM sodium orthovanadate, 20 mM sodium pyrophosphate, 0.5 mM dithiothreitol (DTT), 2 mM phenylmethylsulfonyl fluoride (PMSF)] supplemented with complete Protease Inhibitor Cocktail (Roche), PhosSTOP (Sigma), and 25 U/ml turbo nuclease (Accelagen) on ice for 1 hr. After centrifuge at 20,817 g at 4° C. for 10 min, the concentrations of cell lysate were measured using Micro BCA Protein Assay Kit (Thermo Scientific). About 50-60 μg total proteins were analyzed by SDS-PAGE and quantitative Western blotting. The following antibodies were purchased from commercial sources: Anti-IR-pY1150/1151 (WB, 1:1000; 19H6; labeled as pY IR, Cat. #3024), anti-AKT (WB, 1:1000; 40D4, Cat. #2920), anti-pS473 AKT (WB, 1:1000; D9E, Cat. #4060), anti-ERK1/2 (WB, 1:1000; L34F12, Cat. #4696), anti-pERK1/2 (WB, […]; 197G2, Cat. #4377), anti-IRS1-pS616 (WB, 1:1000; C15H5, Cell Signaling, Cat. #3203); anti-IRS1 (WB, 1:1000; A301-158A, Bethyl Laboratory); anti-IR (WB, 1:500, CT-3, Santa Cruz; labeled as IR for primary hepatocytes and MEFs, Cat. #sc-57342); anti-IR (WB, 1:1000; EPR23566-103; labeled as IR for FIG. 31, ab278100, Abcam); anti-Myc (WB, 1:2000; 9E10, Cat. #11667149001, Roche; labeled as IR for 293 FT cells). For quantitative western blots, anti-rabbit immunoglobulin G (IgG) (H+L) (WB, 1:5000; Dylight 800 conjugates, Cat. #5151) and anti-mouse IgG (H+L) (WB, 1:5000; Dylight 680 conjugates, Cat. #5470) (Cell Signaling) were used as secondary antibodies. The membranes were scanned with the Odyssey Infrared Imaging System (Li—COR, Lincoln, NE).

IR signaling [2] = experiment: IR signaling in primary mouse hepatocytes; type: cell-based
Procedure: Primary hepatocytes were isolated from 2-month-old male mice with a standard two-step collagenase perfusion procedure as described earlier with some modifications. […] After 1-2 sec upon appearance of white spots in the liver, the portal vein was cut with scissors to wash out blood, and then the liver was perfused with 30 ml of Liver Digest Medium (Thermo Scientific, Cat. #17703034). Dissected liver was gently washed with low glucose DMEM and transferred to sterile culture dish containing 15 ml Liver Digest Medium. The isolated liver cells were filtered through the 70 μm cell strainer into a 50 ml tube. After centrifuge at 50 g for 5 min at 4° C., cells were washed with cold low glucose DMEM three times. […] After 2 hr., the medium was changed to serum free low-glucose DMEM.
as §1

SREBP1 = experiment: Immunofluorescence assay for SREBP1 translocation in primary hepatocytes; type: cell-based, mouse; conditions: 100 nM for 30 min
Procedure: Primary hepatocytes were as described in the primary hepatocyte isolation section. […] Cells were fixed with 4% paraformaldehyde for 10 min. The fixed cells were incubated with PBS for 30 min and 3% BSA in PBS with 0.1% Triton X-100 (0.1% PBST) for 1 hr., and then treated with anti-SREBP1 antibodies (20B12, Millipore, Cat. #MABS1987, 1:200) in 3% BSA in 0.1% PBST at 4° C. overnight. After being washed, cells were incubated with secondary antibodies (Alexa Fluor 488 goat anti-rabbit, Invitrogen, Cat. #A11008, 1:200) for 1 hr. Cells were washed and mounted on microscope slides in ProLong Gold Antifade reagent with DAPI (Invitrogen). Images were acquired as a series of 0.2 μm stacks with a Leica Thunder Imager (Leica Microsystems Inc.). Raw images were deconvolved using LAS X Software (Leica Microsystems Inc.). The nuclear edges and the nuclear SREBP1 signal were defined with Image J. Identical exposure times and magnifications were used for all comparative analyses.

IR signaling [3] = experiment: Insulin signaling in vivo (liver, skeletal muscle, WAT lysates, western blot); set-up: species or system mice; conditions: WAT; compared to vehicle treated conditions
Procedure: 2-3 months old male mice were fasted overnight. […] Livers were removed at 3 min after injection. White adipose tissue and skeletal muscles were removed at 5 min and 7 min after injection, respectively. Tissues were mixed with the lysis buffer B supplemented with complete Protease Inhibitor Cocktail (Roche), PhosSTOP (Sigma), and 25 U/ml turbo nuclease (Accelagen), homogenized with FisherbrandTM Bead Mill homogenizer, and then incubated on ice for 1 hr. After centrifuge at 20,817 g at 4° C. for 30 min, the concentrations of cell lysate were measured using Micro BCA Protein Assay Kit (Thermo Scientific). The lysates were then analyzed by quantitative western blotting.

[4] = biological target: T2, full-length mouse insulin receptor, short isoform, D1122N Y962F (mouse, UniProt P15208 28-1372); experiment: cryo-EM of full-length IR with S597-N20
T2 construct: mature; Residue numbers are as printed; also called MmIR; IR
T2 sequence (P15208 28-1372 Y989F/D1149N limits assumed): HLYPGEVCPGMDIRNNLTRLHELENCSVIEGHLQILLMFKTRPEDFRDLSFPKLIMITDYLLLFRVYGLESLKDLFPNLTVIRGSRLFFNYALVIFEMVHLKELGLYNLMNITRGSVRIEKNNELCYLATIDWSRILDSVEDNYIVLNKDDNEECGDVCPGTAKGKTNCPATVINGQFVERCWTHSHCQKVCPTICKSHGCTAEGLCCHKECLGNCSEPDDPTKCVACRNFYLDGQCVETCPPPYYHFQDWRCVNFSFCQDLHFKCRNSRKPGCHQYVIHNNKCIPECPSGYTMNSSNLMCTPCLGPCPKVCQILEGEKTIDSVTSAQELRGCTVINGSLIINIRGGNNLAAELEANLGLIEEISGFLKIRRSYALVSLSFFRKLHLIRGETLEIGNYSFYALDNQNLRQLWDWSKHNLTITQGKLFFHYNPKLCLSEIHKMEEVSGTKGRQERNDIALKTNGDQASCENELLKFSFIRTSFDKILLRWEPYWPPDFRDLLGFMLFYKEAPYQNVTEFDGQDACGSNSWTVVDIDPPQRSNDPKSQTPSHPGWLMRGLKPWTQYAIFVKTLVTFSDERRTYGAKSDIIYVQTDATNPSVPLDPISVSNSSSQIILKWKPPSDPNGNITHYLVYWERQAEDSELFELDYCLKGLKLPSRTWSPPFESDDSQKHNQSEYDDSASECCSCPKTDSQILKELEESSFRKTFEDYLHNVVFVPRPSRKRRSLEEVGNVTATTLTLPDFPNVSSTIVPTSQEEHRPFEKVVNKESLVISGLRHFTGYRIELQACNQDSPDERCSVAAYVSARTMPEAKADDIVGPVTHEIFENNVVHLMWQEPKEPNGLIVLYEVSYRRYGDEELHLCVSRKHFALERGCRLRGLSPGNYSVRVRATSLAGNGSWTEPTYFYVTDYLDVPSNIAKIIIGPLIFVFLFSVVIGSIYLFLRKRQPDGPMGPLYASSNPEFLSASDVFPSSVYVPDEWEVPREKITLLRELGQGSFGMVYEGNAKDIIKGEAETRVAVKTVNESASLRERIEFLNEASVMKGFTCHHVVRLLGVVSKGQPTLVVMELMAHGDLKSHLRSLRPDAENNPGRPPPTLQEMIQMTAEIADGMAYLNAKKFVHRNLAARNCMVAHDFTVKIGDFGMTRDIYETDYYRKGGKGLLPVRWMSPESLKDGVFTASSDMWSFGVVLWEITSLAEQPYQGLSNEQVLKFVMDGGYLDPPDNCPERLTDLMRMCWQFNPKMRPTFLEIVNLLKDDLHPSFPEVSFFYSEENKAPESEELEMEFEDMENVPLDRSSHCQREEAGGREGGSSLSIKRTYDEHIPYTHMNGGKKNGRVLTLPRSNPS
Procedure: (§2) The cryo-EM grid was prepared by applying 3 μl of the protein samples (6 mg/ml) to glow-discharged Quantifoil R1.2/1.3 300-mesh gold holey carbon grids (Quantifoil, Micro Tools GmbH, Germany). Grids were blotted for 4.0 seconds under 100% humidity at 4° C. before being plunged into the liquid ethane using a Mark IV Vitrobot (FEI). Micrographs were acquired on a Titan Krios microscope (FEI) operated at 300 kV with a K3 direct electron detector (Gatan), using a slit width of 20 eV on a GIF-Quantum energy filter. SerialEM 3.8 was used for the data collection. […] The defocus range was set from 1.6 μm to 2.6 μm. Each micrograph was dose-fractionated to 30 frames with a total dose of about 60 e⁻/Å².

[5] = biological target: T2, full-length mouse insulin receptor, …; experiment: cryo-EM of full-length IR with S597, 5.4 Å
Procedure: as §2

IR activation (auto-phosphorylation of IR, pY IR) (IR wild-type (WT)): greatly reduced potency
Molecule: S597-F27A: S597-component-1 mutant, interrupts the IR L1/S597-component-1 interaction (Ac-SLEEEWAQIECEVYGRGCPSESFYDWAERQL; disulfide 11-18 (inferred))
blood glucose levels in ITT (Insulin tolerance test): did not reduce
blood glucose in insulin tolerance assays (Insulin tolerance test): did not reduce glucose levels, but rather elevated them

IR activation (auto-phosphorylation of IR, pY IR) (IR wild-type (WT)): greatly reduced potency
Molecule: S597-W6A: S597-component-2 mutant, disrupts the IR FnIII-1/S597-component-2 interaction (Ac-SLEEEAAQIECEVYGRGCPSESFYDWFERQL; disulfide 11-18 (inferred))
blood glucose levels in ITT (Insulin tolerance test): did not reduce
blood glucose in insulin tolerance assays (Insulin tolerance test): did not reduce glucose levels, but rather elevated them

IR activation (auto-phosphorylation of IR, pY IR) (IR wild-type (WT)): greatly reduced potency
Molecule: S597-N20: N-terminal 20 residues of S597 comprising only component-2 and the linker (Ac-SLEEEWAQIECEVYGRGCPS; disulfide 11-18 (inferred))
pAKT (IR signaling [2]): did not induce phosphorylation
pERK (IR signaling [2]): did not induce phosphorylation
pY IR (IR signaling [2]): did not induce phosphorylation
blood glucose levels in ITT (Insulin tolerance test): did not reduce
blood glucose in insulin tolerance assays (Insulin tolerance test): did not reduce glucose levels, but rather elevated them

binding result [4]: binds
B1: S597-N20 (peptide)
peptide: Ac-SLEEEWAQIECEVYGRGCPS
modifications: disulfide 11-18 (inferred)
notes: also called S597-component-2; S597-component-2 alone

stoichiometry (S597: IR dimer) [5]: 2 S597 per IR dimer
B2: S597 (peptide)
peptide: Ac-SLEEEWAQIECEVYGRGCPSESFYDWFERQL
modifications: disulfide 11-18 (inferred)
notes: Component-2 (N-terminal helix), linker, component-1 (C-terminal helix); also called full-length S597

More lines, now with the values behind:

Molecule: insulin-like growth factor 1 [IGF1]
cell viability and growth (C2C12 cells): significantly increased

Molecule: Humulin: Humulin (human insulin), Eli Lilly
blood glucose levels in ITT (Insulin tolerance test): lowered
body weight gain [1]: increased
C-peptide (insulin secretion) ([1]; serum, 4 h fasted mice): decreased

Molecule: insulin
cell viability and growth (C2C12 cells): significantly increased
pAKT (IR signaling [2]): increased
pERK (IR signaling [2]): increased
pY IR (IR signaling [2]): increased
nuclear translocation of SREBP1 (SREBP1): stimulated to the same level
pAKT level (IR signaling [3]): significantly increased
pERK level (IR signaling [3]): neither insulin nor S597 had a statistically significant effect
